Data on two molecules can be found in patent publication US20100311790A1 (priority 2007, published 2010).

Test [1] deals with Sclerotinia sclerotiorum. The experiment in a line: Test Examples 2 and 3: preventive effect on Sclerotinia rot disease of cucumber, foliar spray. In kind it is in vivo. Particulars: cucumber (Sagami Hanjiro), flowable formulation diluted to 200 ppm, foliar spray before inoculation, 18° C. for 4 days under high humidity. On the procedure:
(§1) The area of lesions on the test plants at testing was visually observed, and the control effect was evaluated by comparing the area of lesions on test plants treated with the invented compound with the area of lesions on untreated plants.
Test for Showing Preventive Effect on Sclerotinia Rot Disease of Cucumber (Sclerotinia sclerotiorum)
Sand soil was packed in a plastic pot, and seeds of cucumber (variety: Sagami Hanjiro) were sowed therein and grown for 12 days in a greenhouse. […] After spraying, the plant was air-dried and PDA medium containing hyphae of Sclerotinia sclerotiorum was placed on the surface of leaves of the cucumber. After the inoculation, the plant was left at 18° C. for 4 days under high humidity, area of lesions was examined. As a result, the lesion area on the plant treated with the invented compounds (1), (3)-(27) and (28) was less than 10% of the lesion area on the untreated plant.
Sand soil was packed in a plastic pot, and seeds of cucumber (variety: Sagami Hanjiro) were sowed therein and grown for 12 days in a greenhouse. The invented compound (2) was formulated into flowable formulation in accordance with Formulation Example 6, and it was diluted with water to a given concentration (200 ppm) and was sprayed onto the foliage of the cucumber so that a sufficient amount of the compound would be applied to the surface of leaves of the cucumber. […]

In test [2] the test system is Botrytis cinerea. The experiment in a line: Test Example 1: preventive effect on Botrytis disease of cucumber, foliar spray. Particulars: cucumber (Sagami Hanjiro), flowable formulation diluted to 13 ppm, foliar spray before inoculation, 12° C. for 5 days under high humidity. The test is classed as in vivo. On the procedure: as §1
Test for Showing Preventive Effect on Botrytis Disease of Cucumber (Botrytis cinerea)
Sand soil was packed in a plastic pot, and seeds of cucumber (variety: Sagami Hanjiro) were sowed therein and grown for 12 days in a greenhouse. Each of the invented compounds (2), (3), (7), (11), (12), (15), (16), (18), (19), (21), (23), (24) and (27) and the comparative compound (A) was formulated into flowable formulation in accordance with Formulation Example 6, and it was diluted with water to a given concentration (13 ppm) and was sprayed onto the foliage of the cucumber so that a sufficient amount of the compound would be applied to the surface of leaves of the cucumber. After spraying, the plant was air-dried and PDA medium containing spores of Botrytis cinerea was placed on the surface of leaves of the cucumber. After the inoculation, the plant was left at 12° C. for 5 days under high humidity, and then the area of lesions was examined. As a result, the lesion area on the plant treated with the invented compounds (2), (3), (7), (11), (12), (15), (16), (18), (19), (21), (23), (24) and (27) was less than 30% of the lesion area on the untreated plant. […]

With `C=CCCOc1cccc(CNC(=O)c2ccc3ncccc3c2)c1F` [(2)], the “lesion area on the treated plant as % of the lesion area on the untreated plant” value in test [1] was “less than 10%”.
Consider `CC(C)=CCOc1cccc(CNC(=O)c2ccc3ncccc3c2)c1` [comparative compound (A), N-[3-(3-methyl-2-butenyloxy)phenyl]methyl-quinoline-6-carboxamide], for which, in test [2], the “lesion area on the treated plant as % of the lesion area on the untreated plant” value stood at 98%.
